From patent publication US20190218187A1, “Novel 5-substituted imidazolylmethyl derivatives” (Bayer CropScience Aktiengesellschaft, priority 2016, published 2019)
Where two headings read alike, the source gives them in different places.

Assays:
[1] = LogP by HPLC on reversed phase columns (EEC directive 79/831 Annex V.A8); format: physicochemical; settings: method [a]: LC-UV, acidic range, 0.1% formic acid in water and acetonitrile as eluent (linear gradient 10% to 95% acetonitrile); for chromatographic logP: reversed phase HPLC column
Description: [table] If more than one LogP value is available within the same method, all the values are given and separated by “+”. Calibration was done with straight-chain alkan2-ones (with 3 to 16 carbon atoms) with known LogP values (measurement of LogP values using retention times with linear interpolation between successive alkanones). Lambda-max-values were determined using UV-spectra from 200 nm to 400 nm and the peak values of the chromatographic signals.

[2] = test system: Septoria tritici; assay: In vivo preventive test on Septoria tritici (leaf spot on wheat); settings: Zymoseptoria tritici, 576 h, read-out: efficacy
Description: Example B: In Vivo Preventive Test on Septoria tritici (Leaf Spot on Wheat)
(§1) The active ingredients are made soluble and homogenized in a mixture of Dimethyl sulfoxide/Acetone/Tween® 80 and then diluted in water to the desired concentration.
The young plants of wheat are treated by spraying the active ingredient prepared as described above. Control plants are treated only with an aqueous solution of Acetone/Dimethyl sulfoxide/Tween® 80.
After 24 hours, the plants are contaminated by spraying the leaves with an aqueous suspension of Septoria tritici spores. The contaminated wheat plants are incubated for 72 hours at 18° C. and at 100% relative humidity and then for 21 days at 20° C. and at 90% relative humidity.
The test is evaluated 24 days after the inoculation. 0% means an efficacy which corresponds to that of the control plants while an efficacy of 100% means that no disease is observed.

[3] = test system: Sphaerotheca fuliginea; assay: In vivo preventive test on Sphaerotheca fuliginea (powdery mildew on cucurbits); settings: Podosphaera fuliginea, 360 h, read-out: efficacy
Description: Example C: In Vivo Preventive Test on Sphaerotheca fuliginea (Powdery Mildew on Cucurbits)
as §1
The young plants of gherkin are treated by spraying the active ingredient prepared as described above. Control plants are treated only with an aqueous solution of Acetone/Dimethyl sulfoxide/Tween® 80.
After 24 hours, the plants are contaminated by spraying the leaves with an aqueous suspension of Sphaerotheca fuliginea spores. The contaminated gherkin plants are incubated for 72 hours at 18° C. and at 100% relative humidity and then for 12 days at 20° C. and at 70-80% relative humidity.
The test is evaluated 15 days after the inoculation. 0% means an efficacy which corresponds to that of the control plants while an efficacy of 100% means that no disease is observed.

[4] = 500 ppm of active ingredient, wheat plants, preventive spray, evaluated 24 days after inoculation, 100% = no disease
[5] = 500 ppm of active ingredient, gherkin plants, preventive spray, evaluated 15 days after inoculation, 100% = no disease

| SMILES | LogP [1] | also measured |
| --- | --- | --- |
| CC(C)(C)c1ccc(CCC(O)(Cn2cncc2C#N)C2(Cl)CC2)cc1 (stereo not drawn) [I-01] | 4.18 ^[a] |  |
| CC(C)(C)C(O)(CCc1ccc(Cl)cc1)Cn1cncc1C#N (stereo not drawn) [I-02, 3-[2-[2-(4-chlorophenyl)ethyl]-2-hydroxy-3,3-dimethyl-butyl]imidazole-4-carbonitrile] |  | pest or weed control at 500 ppm [2, 4]: 90 to 100%; chromatographic logP [1]: 3.31; pest or weed control at 500 ppm [3, 5]: 90 to 100% |
| N#Cc1cncn1CC(O)(CCc1ccc(C(F)(F)F)cc1)C1(F)CC1 (stereo not drawn) [I-03, 3-[2-(1-fluorocyclopropyl)-2-hydroxy-4-[4-(trifluoromethyl)phenyl]butyl]imidazole-4-carbonitrile] |  | pest or weed control at 500 ppm [2, 4]: 90 to 100%; chromatographic logP [1]: 3.15; pest or weed control at 500 ppm [3, 5]: 90 to 100% |
| CC(C)(C)C(O)(CCc1ccc(Cl)cc1)Cn1cncc1Cl (stereo not drawn) [I-04] | 2.78 ^[a] |  |
| CC(C)(C)C(O)(CCc1ccc(Cl)cc1)Cn1cncc1C=O (stereo not drawn) [I-05] | 3.02 ^[a] |  |
| CC(C)(C)C(O)(CCc1ccc(Cl)cc1)Cn1cncc1F (stereo not drawn) [I-06, 1-(4-chlorophenyl)-3-[(5-fluoroimidazol-1-yl)methyl]-4,4-dimethyl-pentan-3-ol] |  | pest or weed control at 500 ppm [2, 4]: 80 to 89%; chromatographic logP [1]: 2.25; pest or weed control at 500 ppm [3, 5]: 90 to 100% |
| N#Cc1cncn1CC(O)(CCc1ccccc1)C1(Cl)CC1 (stereo not drawn) [I-07] | 2.88 ^[a] |  |
| N#Cc1cncn1CC(O)(CCc1ccc(C(F)(F)F)cc1)C1(Cl)CC1 (stereo not drawn) [I-08] | 3.48 ^[a] |  |
| CC(C)(C)c1ccc(CCC(O)(Cn2cncc2C#N)C2(F)CC2)cc1 (stereo not drawn) [I-09] | 3.78 ^[a] |  |
| N#Cc1cncn1CC(O)(CCc1ccccc1)C1(F)CC1 (stereo not drawn) [I-10, 3-[2-(1-fluorocyclopropyl)-2-hydroxy-4-phenyl-butyl]imidazole-4-carbonitrile] |  | pest or weed control at 500 ppm [2, 4]: 90 to 100%; chromatographic logP [1]: 2.53; pest or weed control at 500 ppm [3, 5]: 90 to 100% |
| CC(C)(C)C(O)(CCc1ccc(Cl)cc1)Cn1cncc1Br (stereo not drawn) [I-11] | 2.75 ^[a] |  |
| OC(CCc1ccc(Cl)cc1)(Cn1cncc1Cl)C1(Cl)CC1 (stereo not drawn) [I-12] | 2.73 ^[a] |  |
| CC(C)(CC(O)(Cn1cncc1C#N)C1(Cl)CC1)c1ccccc1 (stereo not drawn) [I-13, 1-[2-(1-chlorocyclopropyl)-2-hydroxy-4-methyl-4-phenylpentyl]-1H-imidazole-5-carbonitrile] |  | pest or weed control at 500 ppm [2]: 90 to 100%; chromatographic logP [1]: 3.09; pest or weed control at 500 ppm [3]: 90 to 100% |
| N#Cc1cncn1CC(O)(CCc1ccc(OC(F)(F)F)cc1)C1(F)CC1 (stereo not drawn) [I-14] | 3.29 ^[a] |  |
| N#Cc1cncn1CC(O)(CCc1ccc(F)cc1F)C1(F)CC1 (stereo not drawn) [I-15] | 2.69 ^[a] |  |
| N#Cc1cncn1CC(O)(CCc1ccc(OC(F)(F)F)c(F)c1)C1(Cl)CC1 (stereo not drawn) [I-16] | 3.69 ^[a] |  |
| Cc1ccc(CCC(O)(Cn2cncc2C#N)C2(F)CC2)cc1 (stereo not drawn) [I-17] | 2.90 ^[a] |  |
| N#Cc1cncn1CC(O)(CCc1ccc(Cl)cc1)C1(Cl)CC1 (stereo not drawn) [I-18, 3-[2-(1-chlorocyclopropyl)-4-(4-chlorophenyl)-2-hydroxy-butyl]imidazole-4-carbonitrile] |  | pest or weed control at 500 ppm [2, 4]: 90 to 100%; chromatographic logP [1]: 3.42; pest or weed control at 500 ppm [3, 5]: 90 to 100% |
| Cc1ccc(CCC(O)(Cn2cncc2C#N)C2(Cl)CC2)cc1 (stereo not drawn) [I-19] | 3.23 ^[a] |  |
| CC(C)(C)C(O)(CCc1ccccc1)Cn1cncc1C#N (stereo not drawn) [I-20] | 2.90 ^[a] |  |
| CC1(c2ccc(CCC(O)(Cn3cncc3C#N)C3(F)CC3)cc2)CC1 (stereo not drawn) [I-21] | 3.55 ^[a] |  |
| N#Cc1cncn1CC(O)(CCc1ccc(Cl)cc1)C1(F)CC1 (stereo not drawn) [I-22] | 2.98 ^[a] |  |
| N#Cc1cncn1CC(O)(CCc1cccnc1)C1(F)CC1 (stereo not drawn) [I-23] | 0.53 ^[a] |  |
| CC1(c2ccc(CCC(O)(Cn3cncc3C#N)C3(Cl)CC3)cc2)CC1 (stereo not drawn) [I-24] | 4.03 ^[a] |  |
| N#Cc1cncn1CC(O)(CCc1ccc(Cl)cc1F)C1(F)CC1 (stereo not drawn) [I-25] | 3.00 ^[a] |  |
| N#Cc1cncn1CC(O)(CCc1ccccc1F)C1(F)CC1 (stereo not drawn) [I-26] | 2.56 ^[a] |  |
| N#Cc1cncn1CC(O)(CCc1ccc(Cl)nc1)C1(F)CC1 (stereo not drawn) [I-27] | 2.03 ^[a] |  |

| SMILES | LogP [1] | also measured |
| --- | --- | --- |
| N#Cc1cncn1CC(O)(CCc1ccc(Cl)nc1)C1(Cl)CC1 (stereo not drawn) [I-28, 3-[2-(1-chlorocyclopropyl)-4-(6-chloro-3-pyridyl)-2-hydroxy-butyl]imidazole-4-carbonitrile] |  | pest or weed control at 500 ppm [2, 4]: 90 to 100%; chromatographic logP [1]: 2.39; pest or weed control at 500 ppm [3, 5]: 90 to 100% |
| Cc1ccc(CCC(O)(Cn2cncc2C#N)C(C)(C)C)cc1 (stereo not drawn) [I-29] | 3.22 ^[a] |  |
| N#Cc1cncn1CC(O)(CCc1ccc(Cl)cc1)C1CC1 (stereo not drawn) [I-30] | 2.90 ^[a] |  |
| N#Cc1cncn1CC(O)(CCc1ccccc1)C1CC1 (stereo not drawn) [I-31] | 2.49 ^[a] |  |
| N#Cc1cncn1CC(O)(CCc1ccc(Cl)cc1F)C1(Cl)CC1 (stereo not drawn) [I-32] | 3.41 ^[a] |  |
| N#Cc1cncn1CC(O)(CCc1ccc(F)nc1)C1(Cl)CC1 (stereo not drawn) [I-33] | 2.20 ^[a] |  |
| N#Cc1cncn1CC(O)(CCc1ccc(F)nc1)C1(F)CC1 (stereo not drawn) [I-34] | 1.88 ^[a] |  |
| CC(C)C(O)(CCc1ccc(Cl)cc1)Cn1cncc1C#N (stereo not drawn) [I-35] | 2.95 ^[a] |  |
| CC(C)C(O)(CCc1ccccc1)Cn1cncc1C#N (stereo not drawn) [I-36] | 2.53 ^[a] |  |
| N#Cc1cncn1CC(O)(CCc1ccc(Cl)cc1)C1CCC1 (stereo not drawn) [I-37] | 3.23 ^[a] |  |
| N#Cc1cncn1CC(O)(CCc1ccccc1)C1CCC1 (stereo not drawn) [I-38] | 2.80 ^[a] |  |
| N#Cc1cncn1CC(O)(CCc1ccccc1)c1ccc(Cl)cc1 (stereo not drawn) [I-39] | 3.46 ^[a] |  |
| N#Cc1cncn1CC(O)(CCc1ccc(Cl)cc1)c1ccc(Cl)cc1 (stereo not drawn) [I-40] | 3.96 ^[a] |  |
| CC(C)(C)C(O)(CCc1ccc(C(F)(F)F)cc1)Cn1cncc1C#N (stereo not drawn) [I-41] | 3.42 ^[a] |  |
| N#Cc1cncn1CC(O)(CCc1ccccc1)CC1CC1 (stereo not drawn) [I-42] | 2.62 ^[a] |  |
| N#Cc1cncn1CC(O)(CCc1ccc(Cl)cc1)CC1CC1 (stereo not drawn) [I-43] | 3.02 ^[a] |  |
| N#Cc1cncn1CC(O)(CCc1ccc(Cl)cc1F)c1ccc(Cl)cc1 (stereo not drawn) [I-44] | 3.64 ^[a] |  |
| N#Cc1cncn1CC(O)(CCc1ccccc1)c1ccccc1 (stereo not drawn) [I-45] | 2.74 ^[a] |  |
| N#Cc1cncn1CC(O)(CCc1ccc(Cl)cc1)c1ccccc1 (stereo not drawn) [I-46, 3-[4-(4-chlorophenyl)-2-hydroxy-2-phenyl-butyl]imidazole-4-carbonitrile] |  | pest or weed control at 500 ppm [2, 4]: 90 to 100%; chromatographic logP [1]: 3.13; pest or weed control at 500 ppm [3, 5]: 90 to 100% |
| CC1(C(O)(CCc2ccccc2)Cn2cncc2C#N)CC1 (stereo not drawn) [I-47] | 2.80 ^[a] |  |
| CC1(C(O)(CCc2ccc(Cl)cc2)Cn2cncc2C#N)CC1 (stereo not drawn) [I-48] | 3.22 ^[a] |  |
| N#Cc1cncn1CC(O)(CCc1ccccc1)c1ccc(Cl)cc1F (stereo not drawn) [I-49] | 3.37 ^[a] |  |
| N#Cc1cncn1CC(O)(CCc1ccc(Cl)cc1F)c1ccc(Cl)cc1F (stereo not drawn) [I-50] | 3.75 ^[a] |  |
| N#Cc1cncn1CC(O)(CCc1ccc(Cl)cc1)c1ccc(Cl)cc1F (stereo not drawn) [I-51] | 3.79 ^[a] |  |
| N#Cc1cncn1CC(O)(CCc1ccc(Cl)cc1F)c1ccccc1 (stereo not drawn) [I-52] | 3.23 ^[a] |  |
| N#Cc1cncn1CC(O)(CCC1Cc2ccccc2O1)C1(F)CC1 (stereo not drawn) [I-53, 1-[4-(2,3-dihydro-1-benzofuran-2-yl)-2-(1-fluorocyclopropyl)-2-hydroxybutyl]-1H-imidazole-5-carbonitrile] |  | chromatographic logP [1]: 2.61 |
